Measurements: patent publication US4330549A, “Coumarins connected via an oxyalkyl group with a piperidine ring having anti-allergic action” (Boehringer Mannheim GmbH, priority 1979, dated 1982)

System: passive cutaneous anaphylactic reaction (PCA)
Assay: Inhibition of passive cutaneous anaphylaxis (PCA) in rats, reaginic antibody to egg albumin
Format: in vivo, rat
Conditions: for inhibition in vivo at 3 mg/kg: dose 3.0 mg/kg (table head: p.o.; method b438: intravenously immediately before the antigen)
[1] = Rattus norvegicus, po, rats, 6 animals per dose

| Structure (SMILES) | inhibition in vivo at 100 mg/kg (Rattus norvegicus, po, dose 100.0 mg/kg (table head: p.o.; method b438: intravenously immediately before the antigen), rats, 6 animals per dose, comparison compound) [%] | times more substance that must be used than of 7-[3-(4-benzamido-piperidino)-propoxy]-3,4-dimethylcoumarin for comparable inhibition of the passive cutaneous anaphylactoid reaction (relative to 7-[3-(4-benzamido-piperidino)-propoxy]-3,4-dimethylcoumarin (Example 1), PCA test in vivo in rats) | inhibition in vivo at 3 mg/kg [1] [%] |
| --- | --- | --- | --- |
| CCN(CC)C(=O)N1CCN(C)CC1 [Diethylcarbamazin, 1-diethylcarbamoyl-4-methylpiperazine, reference compound] | 47 | about 40 times | – |
| Cc1c(C)c2ccc(OCCCN3CCC(NC(=O)c4ccccc4)CC3)cc2oc1=O [Example 1, 7-[3-(4-Benzamido-piperidino)-propoxy]-3,4-dimethylcoumarin] | – | – | 50 |
| Cc1c(C)c2ccc(OCCCN3CCC(NC(=O)c4ccc(F)cc4)CC3)cc2oc1=O [Example 2a, 3,4-Dimethyl-7-{3-[4-(4-fluoro-benzamido)-piperidino]-propoxy}-coumarin] | – | – | 59 |
| COc1ccc(C(=O)NC2CCN(CCCOc3ccc4c(C)c(C)c(=O)oc4c3)CC2)cc1 [Example 2b, 3,4-Dimethyl-7-{3-[4-(4-methoxy-benzamido)-piperidino]-propoxy}-coumarin] | – | – | 36 |
| Cc1c(C)c2ccc(OCCCN3CCC(NC(=O)c4ccc(C(C)(C)C)cc4)CC3)cc2oc1=O [Example 2d, 7-{3-[4-(4-t.-Butyl-benzamido)-piperidino]-propoxy}-3,4-dimethyl-coumarin] | – | – | 52 |
| Cc1cc(=O)oc2ccc(OCCCN3CCC(NC(=O)c4ccccc4)CC3)cc12 [Example 4a, 6-[3-(4-Benzamido-piperidino)-propoxy]-4-methyl-coumarin] | – | – | 61 |
| Cc1c(C)c2ccc(OCCCN3CCC(NC(=O)c4ccc(Cl)cc4)CC3)cc2oc1=O [Example 6, 7-{3-[4-(4-Chlorobenzamido)-piperidino]-propoxy}-3,4-dimethylcoumarin] | – | – | 30 |
| Cc1c(C)c2ccc(OCCCN3CCC(NC(=O)c4cccs4)CC3)cc2oc1=O [Example 7b] | – | – | 23 |
| Cc1cc(=O)[nH]c2ccc(OCCCN3CCC(NC(=O)c4ccccc4)CC3)cc12 [Example 8, 6-[3-(4-Benzamido-piperidino)-propoxy]-4-methyl-2-oxo-1,2-dihydroquinoline] | – | – | 34 |
| Cc1cc(=O)n(C)c2ccc(OCCCN3CCC(NC(=O)c4ccccc4)CC3)cc12 [Example 10, 6-[3-(4-Benzamido-piperidino)-propoxy]-1,4-dimethyl-2-oxo-1,2-dihydroquinoline] | – | – | 54 |
